Data reported in patent US20230219904A1 (SYNGENTA CROP PROTECTION AG, priority 2020, published 2023).

What was measured:
Type in all cases: in vivo
[1] = system: Amaranthus retoflexus (AMARE); experiment: Post-emergence herbicidal glasshouse test (Table B1); conditions: applied at 125 g/ha, evaluated after 13 days
Outline: (§1)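 In this pot assay, seedlings or sown soil receive a spray of formulated active ingredient (acetone/water 50:50, 0.5% Tween 20) at 500 g/h unless indicated. Conditions: 24/16° C day/night, 14 hours light, 65% humidity, watering twice daily. Injury is scored after 13 days, 1 (0-19%) to 5 (80-100%).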

Setaria faberi (SETFA) [2] = experiment: as above; conditions: applied at 125 g/ha, evaluated after 13 days
Outline: as §1

[3] = system: Abutilon theophrasti (ABUTH); experiment: as above; conditions: applied at 125 g/ha, evaluated after 13 days
Outline: as §1

[4] = system: Echinochloa crus-galh (ECHCG); experiment: as above; conditions: applied at 125 g/ha, evaluated after 13 days
Outline: as §1

[5] = system: Ipomoea hederacea (IPOHE); experiment: as above; conditions: applied at 125 g/ha, evaluated after 13 days
Outline: as §1

SINAR (Sinapis arvensis) = experiment: Comparative test, PRE application (Table B2); conditions: evaluated after 14 days
Protocol: (§2) TABLE B2—COMPARATIVE TEST
(§3) Seeds of test species were sown in standard soil in pots. After cultivation for one day under controlled conditions in a glasshouse (at 24/16° C., day/night; 14 hours light; 65% humidity), the plants were sprayed with an aqueous spray solution derived from the formulation of the technical active ingredient in 0.6 ml acetone and 45 ml formulation solution containing 10.6% Emulsogen EL (Registry number 61791-12-6), 42.2% N-methyl pyrrolidone, 42.2% dipropylene glycol monomethyl ether (CAS RN 34590-94-8) and 0.2% X-77 (CAS RN 11097-66-8). The test plants were then grown in a glasshouse under controlled conditions in a glasshouse (at 24/16° C., day/night; 14 hours light; 65% humidity) and watered twice daily. After 14 days, the test was evaluated (100=total damage to plant; 0=no damage to plant).
(§4) Test species: ABUTH (Abutilon theophrasti); BRO′I′L (Bromus tectorum); ECHCG (Echinochloa crus-galli); SINAR (Sinapis arvensis).

[6] = system: ABUTH (Abutilon theophrasti); experiment: Comparative test, PRE application (Table B2); conditions: evaluated after 14 days
Protocol: as §2, §3, §4

[7] = system: ECHCG (Echinochloa crus-galli); experiment: Comparative test, PRE application (Table B2); conditions: evaluated after 14 days
Protocol: as §2, §3, §4

BROTE (Bromus tectorum) = experiment: Comparative test, PRE application (Table B2); conditions: evaluated after 14 days
Protocol: as §2, §3, §4

[8] = system: Amaranthus retoflexus (AMARE); experiment: Pre-emergence herbicidal glasshouse test (Table B1); conditions: applied at 125 g/ha, evaluated after 13 days
Outline: as §1

Setaria faberi (SETFA) [9] = experiment: as above; conditions: applied at 125 g/ha, evaluated after 13 days
Outline: as §1

[10] = system: Abutilon theophrasti (ABUTH); experiment: as above; conditions: applied at 125 g/ha, evaluated after 13 days
Outline: as §1

[11] = system: Echinochloa crus-galh (ECHCG); experiment: as above; conditions: applied at 125 g/ha, evaluated after 13 days
Outline: as §1

[12] = system: Ipomoea hederacea (IPOHE); experiment: as above; conditions: applied at 125 g/ha, evaluated after 13 days
Outline: as §1

Structure (SMILES) | POST Application AMARE, percentage damage on five-point scale [1] | POST Application SETFA, percentage damage on five-point scale (Setaria faberi (SETFA) [2]) | POST Application ECHCG, percentage damage on five-point scale [4] | POST Application IPOHE, percentage damage on five-point scale [5] | damage to plant SINAR (100=total damage to plant; 0=no damage to plant) (SINAR (Sinapis arvensis); 30 g/ha) | damage to plant SINAR (100=total damage to plant; 0=no damage to plant) (SINAR (Sinapis arvensis); 130 g/ha) | damage to plant SINAR (100=total damage to plant; 0=no damage to plant) (SINAR (Sinapis arvensis); 250 g/ha) | damage to plant ABUTH (100=total damage to plant; 0=no damage to plant) ([6]; 30 g/ha) | damage to plant ABUTH (100=total damage to plant; 0=no damage to plant) ([6]; 130 g/ha) | damage to plant ABUTH (100=total damage to plant; 0=no damage to plant) ([6]; 250 g/ha) | damage to plant ECHCG (100=total damage to plant; 0=no damage to plant) ([7]; 30 g/ha) | damage to plant ECHCG (100=total damage to plant; 0=no damage to plant) ([7]; 130 g/ha) | damage to plant ECHCG (100=total damage to plant; 0=no damage to plant) ([7]; 250 g/ha) | damage to plant BROTE (100=total damage to plant; 0=no damage to plant) (BROTE (Bromus tectorum); 30 g/ha) | damage to plant BROTE (100=total damage to plant; 0=no damage to plant) (BROTE (Bromus tectorum); 130 g/ha) | damage to plant BROTE (100=total damage to plant; 0=no damage to plant) (BROTE (Bromus tectorum); 250 g/ha) | PRE Application AMARE, percentage damage on five-point scale [8] | PRE Application SETFA, percentage damage on five-point scale (Setaria faberi (SETFA) [9]) | PRE Application ABUTH, percentage damage on five-point scale [10] | PRE Application ECHCG, percentage damage on five-point scale [11] | other results
Cn1nnnc1NC(=O)c1ccc(OC(F)(F)F)c(NC(=O)c2ccccn2)c1Cl [Compound 1.012, N-[2-chloro-3-[(1-methyltetrazol-5-yl)carbamoyl]-6-(trifluoromethoxy)phenyl]pyridine-2-carboxamide] | 4 (4=60-79%) | 4 (4=60-79%) | 3 (3=40-59%) | 4 (4=60-79%) | 0 | 70 | 80 | 0 | 0 | 10 | 10 | 30 | 30 | 0 | 0 | 70 | 5 (5=80-100%) | 5 (5=80-100%) | 5 (5=80-100%) | 5 (5=80-100%) | POST Application ABUTH, percentage damage on five-point scale [3]: 4 (4=60-79%); PRE Application IPOHE, percentage damage on five-point scale [12]: 4 (4=60-79%)
CCC(=O)Nc1c(OC(F)(F)F)ccc(C(=O)Nc2nnnn2C)c1Cl [Compound 1.007, 2-chloro-N-(1-methyltetrazol-5-yl)-3-(propanoylamino)-4-(trifluoromethoxy)benzamide] | 5 (5=80-100%) | 5 (5=80-100%) | 5 (5=80-100%) | 4 (4=60-79%) | 10 | 60 | 100 | 0 | 60 | 90 | 20 | 70 | 90 | 0 | 0 | 20 | 5 (5=80-100%) | 5 (5=80-100%) | 5 (5=80-100%) | 5 (5=80-100%) | PRE Application IPOHE, percentage damage on five-point scale [12]: 5 (5=80-100%)
